Reference: patent US20220162215A1, “COMPOSITIONS AND METHODS OF USING THE SAME FOR TREATMENT OF NEURODEGENERATIVE AND MITOCHONDRIAL DISEASE” (MITOKININ, INC., priority 2019, published 2022)
Where two headings read alike, the source gives them in different places.

Legend:
HeLa MKYP cells [1] = test: Toxicity / cell death measured by DAPI staining (take-up); format: cell-based; details: 50 μM; for Toxicity (% positive for DAPI take-up at 50 μM)*: Table 3 Supplement A
Experimental: H2O2 treatment was performed as a control for cell death as measured by DAPI staining.
(§1) Briefly, HeLa MKYP cells were plated at 10,000 cells/well in 96 well plates along with compounds at various concentrations. Following 16 hrs of incubation, cells were treated with 1 uM FCCP/oligomycin for 6 hours, then analyzed via FACS for the presence of mitochondria in lysosomes (as determined by an emissions spectrum shift from the pH-sensitive mtKeima tag).

HeLa MKYP cells [2] = test: Human mitophagy assay (HeLa MKYP, mtKeima FACS, FCCP/oligomycin); format: cell-based; details: Homo sapiens, HeLa
Experimental: as §1, with “tag). Examples are shown in FIG. 1 through FIG. 13 below.” for “tag).”

[3] = Table 3, read-out: Potency at 1 μM F/O toxin* (EC50 of mitophagy activation)
[4] = Table 3 Supplement A, as measured in Table 3, read-out: Potency (EC50 Max Mitophagy) (μM)*

SMILES: c1coc(CNc2ncnc3[nH]c(C4CCC4)nc23)c1 [Compound 30]
- Toxicity (% positive for DAPI takeup @ 50 μM) (HeLa MKYP cells [1]; Table 3): 3.0%
- EC50 (HeLa MKYP cells [2]; [3]): > 50 µM

SMILES: CCCCNc1ncnc2[nH]c(C3CCC3)nc12 [Compound 31]
- Toxicity (% positive for DAPI takeup @ 50 μM) (HeLa MKYP cells [1]; Table 3): 6.1%
- EC50 (HeLa MKYP cells [2]; [3]): > 50 µM

SMILES: FC(F)(F)c1cc2c(NC3CCCc4ccccc43)ncnc2[nH]1 (stereo not drawn) [Compound 32]
- Toxicity (% positive for DAPI takeup @ 50 μM) (HeLa MKYP cells [1]; Table 3): 27.1%
- EC50 (HeLa MKYP cells [2]; [3]): > 50 µM

SMILES: FC(F)(F)c1cc2c(NC3CCOc4ccccc43)ncnc2[nH]1 (stereo not drawn) [Compound 33]
- Toxicity (% positive for DAPI takeup @ 50 μM) (HeLa MKYP cells [1]; Table 3): 22.3%
- EC50 (HeLa MKYP cells [2]; [3]): 3.5 µM

SMILES: FC(F)(F)c1cc2c(NC3COCc4ccccc43)ncnc2[nH]1 (stereo not drawn) [Compound 34]
- Toxicity (% positive for DAPI takeup @ 50 μM) (HeLa MKYP cells [1]; Table 3): 42.9%
- EC50 (HeLa MKYP cells [2]; [3]): > 50 µM

SMILES: COc1cc(CNc2ncnc3[nH]c(C4CC4)nc23)ccn1 [Compound 35]
- Toxicity (% positive for DAPI takeup @ 50 μM) (HeLa MKYP cells [1]; Table 3): 7.1%
- EC50 (HeLa MKYP cells [2]; [3]): > 50 µM

SMILES: c1ncc(CNc2ncnc3[nH]c(C4CC4)nc23)cn1 [Compound 36]
- Toxicity (% positive for DAPI takeup @ 50 μM) (HeLa MKYP cells [1]; human): 7.1%
- EC50 (HeLa MKYP cells [2]; [3]): > 50 µM

SMILES: FC(F)(F)c1cc2c(N[C@H]3COc4ccccc43)ncnc2[nH]1 [Compound 39]
- Toxicity (% positive for DAPI takeup @ 50 μM) (HeLa MKYP cells [1]; Table 3): 22.8%
- Toxicity (% positive for DAPI take-up at 50 μM)* (HeLa MKYP cells [1]): 27.32%
- EC50 (HeLa MKYP cells [2]; [3]): 1.4 µM
- EC50 (HeLa MKYP cells [2]; [4]): 1.49 µM

SMILES: C[C@H](Nc1ncnc2[nH]c(C(F)(F)F)cc12)c1ccccc1 [Compound 40]
- Toxicity (% positive for DAPI takeup @ 50 μM) (HeLa MKYP cells [1]; Table 3): 90.8%
- Toxicity (% positive for DAPI take-up at 50 μM)* (HeLa MKYP cells [1]): 92.03%
- EC50 (HeLa MKYP cells [2]; [3]): 0.3 µM
- EC50 (HeLa MKYP cells [2]; [4]): 0.02 µM

SMILES: FC(F)(F)c1cc2c(N[C@@H]3COc4ccccc43)ncnc2[nH]1 [Compound 41]
- Toxicity (% positive for DAPI takeup @ 50 μM) (HeLa MKYP cells [1]; Table 3): 29.2%
- Toxicity (% positive for DAPI take-up at 50 μM)* (HeLa MKYP cells [1]): 29.25%
- EC50 (HeLa MKYP cells [2]; [3]): 14.9 µM
- EC50 (HeLa MKYP cells [2]; [4]): 14.9 µM

SMILES: FC(F)(F)c1cc2c(N[C@H]3CCOc4ccccc43)ncnc2[nH]1 [Compound 42]
- Toxicity (% positive for DAPI takeup @ 50 μM) (HeLa MKYP cells [1]; Table 3): 37.7%
- Toxicity (% positive for DAPI take-up at 50 μM)* (HeLa MKYP cells [1]): 37.66%
- EC50 (HeLa MKYP cells [2]; [3]): 5.6 µM
- EC50 (HeLa MKYP cells [2]; [4]): 5.64 µM

SMILES: FC(F)(F)c1cc2c(NC3CCCc4ncncc43)ncnc2[nH]1 (stereo not drawn) [Compound 45]
- Toxicity (% positive for DAPI takeup @ 50 μM) (HeLa MKYP cells [1]; Table 3): 12.0%
- Toxicity (% positive for DAPI take-up at 50 μM)* (HeLa MKYP cells [1]): 11.97%
- EC50 (HeLa MKYP cells [2]; [3]): > 50 µM
- EC50 (HeLa MKYP cells [2]; [4]): > 25 µM

SMILES: C[C@H](Nc1ncnc2[nH]c(C3CC3)nc12)c1ccccc1 [Compound 46]
- Toxicity (% positive for DAPI takeup @ 50 μM) (HeLa MKYP cells [1]; Table 3): 27.6%
- Toxicity (% positive for DAPI take-up at 50 μM)* (HeLa MKYP cells [1]): 27.61%
- EC50 (HeLa MKYP cells [2]; [3]): 3.2 µM
- EC50 (HeLa MKYP cells [2]; [4]): 3.17 µM

SMILES: C[C@@H](Nc1ncnc2[nH]c(C3CC3)nc12)c1ccccc1 [Compound 47]
- Toxicity (% positive for DAPI takeup @ 50 μM) (HeLa MKYP cells [1]; Table 3): 12.3%
- Toxicity (% positive for DAPI take-up at 50 μM)* (HeLa MKYP cells [1]): 12.33%
- EC50 (HeLa MKYP cells [2]; [3]): > 50 µM
- EC50 (HeLa MKYP cells [2]; [4]): > 25 µM

SMILES: COc1ccccc1CNc1ncnc2[nH]c(C(F)(F)F)cc12 [Compound 48]
- Toxicity (% positive for DAPI takeup @ 50 μM) (HeLa MKYP cells [1]; Table 3): 24.7%
- EC50 (HeLa MKYP cells [2]; [3]): 2 µM

SMILES: FC(F)(F)c1cc2c(NCc3cncnc3)ncnc2[nH]1 [Compound 49]
- Toxicity (% positive for DAPI takeup @ 50 μM) (HeLa MKYP cells [1]; human): 23.0%
- EC50 (HeLa MKYP cells [2]; [3]): 11.7 µM

SMILES: COc1ccc(CNc2ncnc3[nH]c(C(F)(F)F)cc23)c(OC)c1 [Compound 51]
- Toxicity (% positive for DAPI takeup @ 50 μM) (HeLa MKYP cells [1]; Table 3): 42.6%
- EC50 (HeLa MKYP cells [2]; [3]): 2.1 µM

SMILES: c1ccc2c(c1)OCC2Nc1ncnc2[nH]cnc12 (stereo not drawn) [Compound 53]
- Toxicity (% positive for DAPI takeup @ 50 μM) (HeLa MKYP cells [1]; Table 3): 21.0%
- Toxicity (% positive for DAPI take-up at 50 μM)* (HeLa MKYP cells [1]): 20.95%
- EC50 (HeLa MKYP cells [2]; [3]): 6.1 µM
- EC50 (HeLa MKYP cells [2]; [4]): 6.11 µM

SMILES: c1ccc2c(c1)CC[C@@H]2Nc1ncnc2[nH]cnc12 [Compound 54]
- Toxicity (% positive for DAPI takeup @ 50 μM) (HeLa MKYP cells [1]; Table 3): 16.2%
- Toxicity (% positive for DAPI take-up at 50 μM)* (HeLa MKYP cells [1]): 16.16%
- EC50 (HeLa MKYP cells [2]; [3]): 4.4 µM
- EC50 (HeLa MKYP cells [2]; [4]): 4.38 µM

SMILES: c1ccc2c(c1)CC[C@H]2Nc1ncnc2[nH]cnc12 [Compound 55]
- Toxicity (% positive for DAPI takeup @ 50 μM) (HeLa MKYP cells [1]; Table 3): 10.3%
- Toxicity (% positive for DAPI take-up at 50 μM)* (HeLa MKYP cells [1]): 10.31%
- EC50 (HeLa MKYP cells [2]; [3]): > 50 µM
- EC50 (HeLa MKYP cells [2]; [4]): > 25 µM

SMILES: COc1ccccc1CNc1ncnc2nc[nH]c12 [Compound 56]
- Toxicity (% positive for DAPI takeup @ 50 μM) (HeLa MKYP cells [1]; Table 3): 12.4%
- Toxicity (% positive for DAPI take-up at 50 μM)* (HeLa MKYP cells [1]): 12.42%
- EC50 (HeLa MKYP cells [2]; [3]): 10.8 µM
- EC50 (HeLa MKYP cells [2]; [4]): 10.8 µM

SMILES: Clc1cccc(CNc2ncnc3nc[nH]c23)c1 [Compound 58]
- Toxicity (% positive for DAPI takeup @ 50 μM) (HeLa MKYP cells [1]; Table 3): 12.5%
- Toxicity (% positive for DAPI take-up at 50 μM)* (HeLa MKYP cells [1]): 12.54%
- EC50 (HeLa MKYP cells [2]; [3]): 16 µM
- EC50 (HeLa MKYP cells [2]; [4]): 16 µM

SMILES: c1ccc2c(c1)OCC[C@@H]2Nc1ncnc2[nH]cnc12 [Compound 59]
- Toxicity (% positive for DAPI takeup @ 50 μM) (HeLa MKYP cells [1]; Table 3): 17.0%
- Toxicity (% positive for DAPI take-up at 50 μM)* (HeLa MKYP cells [1]): 19.76%
- EC50 (HeLa MKYP cells [2]; [3]): 1.8 µM
- EC50 (HeLa MKYP cells [2]; [4]): 1.69 µM

SMILES: c1ccc(CCNc2ncnc3[nH]cnc23)cc1 [Compound 60]
- Toxicity (% positive for DAPI takeup @ 50 μM) (HeLa MKYP cells [1]; Table 3): 19.7%
- Toxicity (% positive for DAPI take-up at 50 μM)* (HeLa MKYP cells [1]): 23.09%
- EC50 (HeLa MKYP cells [2]; [3]): 2.8 µM
- EC50 (HeLa MKYP cells [2]; [4]): 2.26 µM

SMILES: OC[C@@H](Nc1ncnc2[nH]cnc12)c1ccccc1 [Compound 61]
- Toxicity (% positive for DAPI takeup @ 50 μM) (HeLa MKYP cells [1]; Table 3): 8.9%
- Toxicity (% positive for DAPI take-up at 50 μM)* (HeLa MKYP cells [1]): 8.9%
- EC50 (HeLa MKYP cells [2]; [3]): > 50 µM
- EC50 (HeLa MKYP cells [2]; [4]): > 25 µM

SMILES: c1ccc2c(c1)OCC[C@H]2Nc1ncnc2[nH]cnc12 [Compound 62]
- Toxicity (% positive for DAPI takeup @ 50 μM) (HeLa MKYP cells [1]; Table 3): 16.0%
- Toxicity (% positive for DAPI take-up at 50 μM)* (HeLa MKYP cells [1]): 15.96%
- EC50 (HeLa MKYP cells [2]; [3]): > 50 µM
- EC50 (HeLa MKYP cells [2]; [4]): > 25 µM
